Drawing on patent publication US7459451B2, “Pyrazolopyridine derivatives” (Astellas Pharma Inc., priority 2004, dated 2008), this text covers IC50 and melting point for seven compounds.

Bounds are passed on as bounds.

The target in data set [1] is U937 Phosphodiesterase IV (PDE IV). Briefly: Inhibition of U937 Phosphodiesterase IV (PDE IV). It counts as biochemical. As to conditions: inhibitory activity on PDE-IV; enzyme preparation from U937 cells, [3H]cAMP SPA assay, CI-930 10 μM present. Here is the method: (a) Inhibition of U937 Phosphodiesterase IV (PDE IV)
Cultured U937 cells were washed twice and harvested with phosphate-buffered saline (PBS) by cell-scraper. After centrifugation, the cell pellet was suspended in homogenizing buffer (0.5% deoxycholate [DOC], 5 mM 2-mercaptoethanol, 1 μM leupeptin, 100 μM PMSF, 20 μM p-tosyl-L-lysine-chloromethyl ketone [TLCK] in PBS). The cell suspension was then sonicated for a couple of minutes and homogenized by a glass-Teflon homogenizer with twenty strokes. The homogenate was centrifuged at 200 g for 30 minutes, and the supernatant was further ultra-centrifuged at 100,000×g for 90 minutes (4° C.). The final supernatant was dialyzed against dialysis buffer, which was the same component as homogenizing buffer without DOC. The dialysate of enzyme preparation was stored at −20° C. until assay.
PDE4, activity was estimated with a Phosphodiesterase [^3H]cAMP SPA Enzyme Assay System (Amersham Pharmacia Biotech), using a 96 well Opti-plate. Reactions were initiated by addition of 0.025 μCi/well of [^3H]cAMP to the enzyme mixture containing 50 mM Tris-HCl (pH 7.5), 8.3 mM MgCl2, 1.7 mM EGTA, and various concentrations of the test compound or vehicle. CI-930 (10 μM in final), a specific PDE3, inhibitor, was also added in the reaction mixture. After incubation at 30° C. for 15 minutes, 50 μL of SPA beads suspension was added to each well. The well-plate was then shaken for 20 minutes by a plate mixer. Radio-activity in each well was counted by a Top Counter.
Test compounds were dissolved in 100% dimethylsulfoxide (DMSO) and diluted into respective concentrations with the final solution containing 1% v/v of DMSO.
IC50 values of test compounds for the enzyme activity of PDE4 was determined from regression analysis for log-logit conversion values of percent inhibition in the compound-treated tubes compared to that of the control. Percent inhibition was calculated with the following equation: Inhibition (%)={1−(C−B)/(A−B)}×100; in which A, B and C means mean values of radio-activity counts (dpm) of control, blank and the compound-treated tubes, respectively.

Data set [2] relates to TNF-alpha production in rat peripheral blood mononuclear cells (PBMC). As to the kind of experiment: Inhibition on TNF-alpha production in rat mononuclear cells. It counts as cell-based. As to conditions: inhibitory activity on TNF-alpha production, LPS 1 μg/mL, 24 hours, ELISA. On the procedure:
(b) Inhibition on TNF-alpha Production in Rat Mononuclear Cells 1. Test Method (1) Rat Peripheral Blood Mononuclear Cells (PBMC) Preparation
Male Wistar rat at the age of 15 weeks was anesthetized with ether and the blood (about 15 ml) was collected with a disposable syringe from the abdominal artery under celiotomy. Collected blood was transferred to a heparin containing polyethylene tube and an equal volume of RPMI1640 was added to each tube. Diluted blood was then piled tip to 20 ml of Lympholyte-Rat (Cedarlane Laboratories, Canada) in polystyrene centrifuge tube. After centrifugation at 3,000 rpm for 30 minutes, cells gathering in the center area of the gradient were collected by capillary and washed with 40 mL of RPMI1640 by twice of centrifugation at 1,200 rpm for 10 minutes. Precipitate was then suspended in 10 ml of Tris-ammonium-chloride buffer and stood for 10 minutes in order to lyse remaining erythrocytes. After centrifugation at 1,200 rpm for 10 minutes, the precipitate was washed twice with 50 ml of RPMI1640 by centrifugation. PBMC finally precipitated were suspended in RPMI1640 containing 1% fetal bovine serum and antibiotics. After cell counting, final suspension at 3×10^6 cells/mL in culture medium was prepared.
(2) TNF-alpha Production from Stimulated PBMCs
Rat PBMC prepared by the density gradient method using Lympholyte-Rat, were suspended in the culture medium mentioned above with the concentration of 3×10^6 cells/mL and 0.5 ml of the suspension was sowed into each well of a 24-well culture plate. Cells were incubated in the CO2 incubator for 24 hours with 0.25 ml of LPS in addition of 0.25 ml of concentrations of drugs or vehicle at the start of the incubation. Final concentration of LPS in the incubation medium was 1 μg/mL. After 24 hours, the supernatant of each well by centrifugation at 1,700 rpm for 10 minutes was stored at −80° C. until assay. TNF-alpha levels in the medium were measured by ELISA.
The IC50 values of drugs on cytokine productions in LPS stimulated PBMC were estimated by the regression analysis for the relative values of cytokine level in the drug-treated wells compared to those of the vehicle-treated ones.

As usually defined, the IC50 is the point on the concentration scale where inhibition reaches its midpoint. A high value points to lower potency. The term melting point denotes the temperature, or range, at which the solid turns liquid. As for `CCn1ncc2c(-c3cncc(Br)c3)c(C#N)c(C)nc21` [Example 73, 4-(5-bromo-3-pyridyl)-1-ethyl-6-methyl-1H-pyrazolo[3,4-b]pyridine-5-carbonitrile], the melting point is 165 to 166 °C. In data set [1], this compound showed an IC50 of less than 1000 nM. In data set [2], this compound came in with an IC50 of 27 nM.
Compound `CCn1ncc2c(-c3cncc(Br)c3)c(/C=C/C(=O)O)c(C)nc21` [Example 84, (2E)-3-[4-(5-Bromo-3-pyridyl)-1-ethyl-6-methyl-1H-pyrazolo[3,4-b]pyridin-5-yl]acrylic acid] returned a melting point of 189 to 190 °C. In addition, the IC50 in data set [1] is less than 1000 nM. The midpoint of inhibition in data set [2], the IC50, lay at 62.7 nM.
On the same counts, the results for `CCn1ncc2c(-c3cncc(C)c3)c(/C=C/C(=O)O)c(COCC3CCCCC3)nc21` [Example 89, (2E)-3-[6-[(Cyclohexylmethoxy)methyl]-1-ethyl-4-(5-methyl-3-pyridyl)-1H-pyrazolo[3,4-b]pyridin-5-yl]acrylic acid] are 172 to 173 °C, less than 1000 nM and 85.6 nM.
Regarding `CCn1ncc2c(-c3cncc(C)c3)c(/C=C/C(=O)O)c(-c3ccccc3)nc21` [Example 91, (2E)-3-[1-Ethyl-4-(5-methyl-3-pyridyl)-6-phenyl-1H-pyrazolo[3,4-b]pyridin-5-yl]acrylic acid], the values for the IC50 in data set [1] and in data set [2] were less than 1000 nM and 15.7 nM, respectively.
The compound `CCC(CC)c1nc2c(cnn2CC)c(-c2cncc(C)c2)c1CCC(=O)O` [Example 346, 3-[1-Ethyl-6-(1-ethylpropyl)-4-(5-methyl-3-pyridyl)-1H-pyrazolo[3,4-b]pyridin-5-yl]propanoic acid] came in with a melting point of 144 to 145 °C.
For the compound `CCn1ncc2c(-c3cncc(C)c3)c(CCC(=O)O)c(CC(C)(C)C)nc21` [Example 349, 3-[6-(2,2-Dimethylpropyl)-1-ethyl-4-(5-methyl-3-pyridyl)-1H-pyrazolo[3,4-b]pyridin-5-yl]propanoic acid], the melting point was in the range of 221 to 223 °C.
Take `CCn1ncc2c(-c3ccnc(C)c3)c(CCC(=O)O)c(C(C)C)nc21` [Example 351, 3-[1-Ethyl-6-isopropyl-4-(2-methyl-4-pyridyl)-1H-pyrazolo[3,4-b]pyridin-5-yl]propanoic acid]: the melting point lay in the range of 187 to 189 °C.
